Measurements from ChEMBL document CHEMBL3045415, “Synthesis, characterization and antimicrobial activities of some novel bis-chalcones” (2012).
In brackets after ≈: the same amount, converted by molar mass. Activity calls are given as the source filed them. The calls are words filed in the database; no cut-off is given here.

How the values were obtained:
Format in all cases: functional
Staphylococcus aureus [1] = assay: Antibacterial activity against Staphylococcus aureus ATCC 29737 after 24 hr by disk diffusion method; settings: ATCC 29737, 24 h
Staphylococcus aureus [2] = assay: Antibacterial activity against Staphylococcus aureus ATCC 29737 at 400 ug/ml after 24 hr by cup-plate agar method; settings: for zone of inhibition at 400 µg/mL: ATCC 29737, 24 h, read-out: IZ
Candida albicans [3] = assay: Antifungal activity against Candida albicans ATCC 10231 at 400 ug/ml after 24 hr by cup-plate agar method; settings: for zone of inhibition at 400 µg/mL: ATCC 10231, 24 h, read-out: IZ
Candida albicans [4] = assay: Antifungal activity against Candida albicans ATCC 10231 after 24 hr by disk diffusion method; settings: ATCC 10231, 24 h
Escherichia coli [5] = assay: Antibacterial activity against Escherichia coli ATCC 35218 after 24 hr by disk diffusion method; settings: ATCC 35218, 24 h
Escherichia coli [6] = assay: Antibacterial activity against Escherichia coli ATCC 35218 at 400 ug/ml after 24 hr by cup-plate agar method; settings: for zone of inhibition at 400 µg/mL: ATCC 35218, 24 h, read-out: IZ

With `O=C(/C=C/c1ccccc1[N+](=O)[O-])c1ccc(C(=O)/C=C/c2ccccc2[N+](=O)[O-])cc1` the MIC (Staphylococcus aureus [1]) was 100 µg/mL (≈ 233 µM), the zone of inhibition at 400 µg/mL (Staphylococcus aureus [2]) was 15 mm and the zone of inhibition at 400 µg/mL (Candida albicans [3]) was 15 mm. For the same compound, the MIC (Candida albicans [4]) was 100 µg/mL (≈ 233 µM), the MIC (Escherichia coli [5]) was 100 µg/mL (≈ 233 µM) and the zone of inhibition at 400 µg/mL (Escherichia coli [6]) was 21 mm.
`O=C(/C=C/c1ccccc1O)c1ccc(C(=O)/C=C/c2ccccc2O)cc1` was tested, and the zone of inhibition at 400 µg/mL (Staphylococcus aureus [2]) was 13 mm, the “inhibition zone (IZ)” value (Candida albicans [3]) was “inactive” and the MIC (Candida albicans [4]) was 100 µg/mL (≈ 270 µM). It also gave an MIC (Escherichia coli [5]) of 50 µg/mL (≈ 135 µM) and a zone of inhibition at 400 µg/mL (Escherichia coli [6]) of 30 mm.
For `O=C(/C=C/c1ccc(Br)cc1)c1ccc(C(=O)/C=C/c2ccc(Br)cc2)cc1`, the zone of inhibition at 400 µg/mL (Staphylococcus aureus [2]) was 9 mm, the “inhibition zone (IZ)” value (Candida albicans [3]) was “inactive” and the MIC (Candida albicans [4]) was 200 µg/mL (≈ 403 µM). For the same compound, the MIC (Escherichia coli [5]) was 50 µg/mL (≈ 101 µM) and the zone of inhibition at 400 µg/mL (Escherichia coli [6]) was 30 mm.
Work on GENTAMICIN yielded an inhibition zone (IZ) (Staphylococcus aureus [2]) of 23 mm and an inhibition zone (IZ) (Escherichia coli [6]) of 24 mm.
With `COc1ccc(/C=C/C(=O)c2ccc(C(=O)/C=C/c3ccc(OO)cc3)cc2)cc1` the MIC (Staphylococcus aureus [1]) was 300 µg/mL (≈ 749 µM), the “inhibition zone (IZ)” value (Staphylococcus aureus [2]) was “inactive” and the zone of inhibition at 400 µg/mL (Candida albicans [3]) was 22 mm. The “inhibition zone (IZ)” value (Escherichia coli [6]) was “inactive”.
For `O=C(/C=C/c1cccc(Br)c1)c1ccc(C(=O)/C=C/c2cccc(Br)c2)cc1`, the zone of inhibition at 400 µg/mL (Staphylococcus aureus [2]) was 10 mm, the “inhibition zone (IZ)” value (Candida albicans [3]) was “inactive” and the MIC (Candida albicans [4]) was 200 µg/mL (≈ 403 µM). For the same compound, the MIC (Escherichia coli [5]) was 50 µg/mL (≈ 101 µM) and the zone of inhibition at 400 µg/mL (Escherichia coli [6]) was 30 mm.
For `COc1cccc(/C=C/C(=O)c2ccc(C(=O)/C=C/c3cccc(OC)c3)cc2)c1`, the “inhibition zone (IZ)” value (Staphylococcus aureus [2]) was “inactive”, the “inhibition zone (IZ)” value (Candida albicans [3]) was “inactive” and the “inhibition zone (IZ)” value (Escherichia coli [6]) was “inactive”.
`O=C(/C=C/c1ccccc1)c1ccc(C(=O)/C=C/c2ccccc2)cc1` showed an MIC (Staphylococcus aureus [1]) of 200 µg/mL (≈ 591 µM), a zone of inhibition at 400 µg/mL (Staphylococcus aureus [2]) of 10 mm and a zone of inhibition at 400 µg/mL (Candida albicans [3]) of 17 mm. The MIC (Candida albicans [4]) was 200 µg/mL (≈ 591 µM), the MIC (Escherichia coli [5]) was 200 µg/mL (≈ 591 µM) and the zone of inhibition at 400 µg/mL (Escherichia coli [6]) was 13 mm.
For `COc1ccccc1/C=C/C(=O)c1ccc(C(=O)/C=C/c2ccccc2OC)cc1`, the MIC (Staphylococcus aureus [1]) was 300 µg/mL (≈ 753 µM), the “inhibition zone (IZ)” value (Staphylococcus aureus [2]) was “inactive” and the zone of inhibition at 400 µg/mL (Candida albicans [3]) was 9 mm. The “inhibition zone (IZ)” value (Escherichia coli [6]) was “inactive”.
In the case of `C[C@@H]1[C@H](O)[C@@H](C)/C=C/C=C/C=C/C=C/C=C/C=C/C=C/[C@H](O[C@@H]2O[C@H](C)[C@@H](O)[C@H](N)[C@@H]2O)C[C@@H]2O[C@](O)(C[C@@H](O)C[C@@H](O)[C@H](O)CC[C@@H](O)C[C@@H](O)CC(=O)O[C@H]1C)C[C@H](O)[C@H]2C(=O)O` [AMPHOTERICIN B], the zone of inhibition at 400 µg/mL (Candida albicans [3]) is reported as 21 mm.
Compound `O=C(/C=C/c1ccccc1Cl)c1ccc(C(=O)/C=C/c2ccccc2Cl)cc1` has an MIC (Staphylococcus aureus [1]) of 200 µg/mL (≈ 491 µM), a zone of inhibition at 400 µg/mL (Staphylococcus aureus [2]) of 10 mm and a zone of inhibition at 400 µg/mL (Candida albicans [3]) of 12 mm. It also gave an MIC (Candida albicans [4]) of 100 µg/mL (≈ 246 µM), an MIC (Escherichia coli [5]) of 100 µg/mL (≈ 246 µM) and a zone of inhibition at 400 µg/mL (Escherichia coli [6]) of 27 mm.
With `COc1ccc(/C=C/C(=O)c2ccc(C(=O)/C=C/c3ccc(OC)c(OC)c3)cc2)cc1OC` the zone of inhibition at 400 µg/mL (Staphylococcus aureus [2]) was 11 mm, the “inhibition zone (IZ)” value (Candida albicans [3]) was “inactive” and the MIC (Candida albicans [4]) was 200 µg/mL (≈ 436 µM). The MIC (Escherichia coli [5]) was 100 µg/mL (≈ 218 µM) and the zone of inhibition at 400 µg/mL (Escherichia coli [6]) was 30 mm.
`O=C(/C=C/c1cccc(Cl)c1)c1ccc(C(=O)/C=C/c2cccc(Cl)c2)cc1` was tested, and the MIC (Staphylococcus aureus [1]) was 300 µg/mL (≈ 737 µM), the “inhibition zone (IZ)” value (Staphylococcus aureus [2]) was “inactive” and the zone of inhibition at 400 µg/mL (Candida albicans [3]) was 12 mm. It also gave an MIC (Escherichia coli [5]) of 300 µg/mL (≈ 737 µM) and a zone of inhibition at 400 µg/mL (Escherichia coli [6]) of 13 mm.
For `O=C(/C=C/c1ccc(Cl)cc1)c1ccc(C(=O)/C=C/c2ccc(Cl)cc2)cc1`, the MIC (Staphylococcus aureus [1]) was 200 µg/mL (≈ 491 µM), the zone of inhibition at 400 µg/mL (Staphylococcus aureus [2]) was 10 mm and the zone of inhibition at 400 µg/mL (Candida albicans [3]) was 12 mm. It also gave an MIC (Candida albicans [4]) of 200 µg/mL (≈ 491 µM), an MIC (Escherichia coli [5]) of 100 µg/mL (≈ 246 µM) and a zone of inhibition at 400 µg/mL (Escherichia coli [6]) of 23 mm.
`O=C(/C=C/c1ccc([N+](=O)[O-])cc1)c1ccc(C(=O)/C=C/c2ccc([N+](=O)[O-])cc2)cc1` gave an MIC (Staphylococcus aureus [1]) of 50 µg/mL (≈ 117 µM), a zone of inhibition at 400 µg/mL (Staphylococcus aureus [2]) of 10 mm and a zone of inhibition at 400 µg/mL (Candida albicans [3]) of 25 mm. The MIC (Candida albicans [4]) was 200 µg/mL (≈ 467 µM), the MIC (Escherichia coli [5]) was 50 µg/mL (≈ 117 µM) and the zone of inhibition at 400 µg/mL (Escherichia coli [6]) was 13 mm.
With `O=C(/C=C/c1cccc([N+](=O)[O-])c1)c1ccc(C(=O)/C=C/c2cccc([N+](=O)[O-])c2)cc1` the “inhibition zone (IZ)” value (Staphylococcus aureus [2]) was “inactive”, the “inhibition zone (IZ)” value (Candida albicans [3]) was “inactive” and the “inhibition zone (IZ)” value (Escherichia coli [6]) was “inactive”.
